From patent US10183919B2 (priority 2014, dated 2019) come the findings set out here.

The term EC50 denotes the midpoint of the concentration-response curve.

Counter-ions that a name gives are not always drawn.

T2 sequence (P42866 whole entry): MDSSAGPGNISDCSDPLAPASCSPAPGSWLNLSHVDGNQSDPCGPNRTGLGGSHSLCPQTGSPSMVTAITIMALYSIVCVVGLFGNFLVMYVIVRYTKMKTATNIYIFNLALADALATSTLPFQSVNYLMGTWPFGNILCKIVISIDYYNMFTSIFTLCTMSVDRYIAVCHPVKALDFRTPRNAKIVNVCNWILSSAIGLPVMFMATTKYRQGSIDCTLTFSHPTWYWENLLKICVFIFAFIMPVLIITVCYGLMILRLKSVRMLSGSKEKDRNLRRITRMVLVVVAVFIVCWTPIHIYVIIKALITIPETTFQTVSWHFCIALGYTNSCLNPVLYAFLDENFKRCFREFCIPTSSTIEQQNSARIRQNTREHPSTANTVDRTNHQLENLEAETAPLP

One test deals with T1, Human MOR (Homo sapiens, UniProt P35372).
T1 construct: expressed in transfected cells; host or cells: HEK-293T
T1 sequence (P35372 whole entry): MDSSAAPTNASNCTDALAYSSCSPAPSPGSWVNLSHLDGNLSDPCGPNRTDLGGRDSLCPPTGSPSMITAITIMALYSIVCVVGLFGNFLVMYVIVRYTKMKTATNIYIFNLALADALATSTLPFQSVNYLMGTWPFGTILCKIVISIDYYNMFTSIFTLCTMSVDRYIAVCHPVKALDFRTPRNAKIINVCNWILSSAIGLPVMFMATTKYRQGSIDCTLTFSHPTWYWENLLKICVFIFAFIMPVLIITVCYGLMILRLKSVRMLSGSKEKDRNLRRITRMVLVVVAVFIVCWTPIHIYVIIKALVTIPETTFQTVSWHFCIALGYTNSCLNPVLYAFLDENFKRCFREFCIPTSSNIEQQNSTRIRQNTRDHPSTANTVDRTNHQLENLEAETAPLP
Nature of the test: cell-based.
Conditions: not given
The source says:
(§1) Transfection. Human or mouse MOR cDNA was transfected alongside GαoB with RLuc8 inserted at position 91 (GαoB-RLuc8), Gβ1 (β1), and Gγ2 fused to the full-length mVenus at its N terminus (mVenus-γ2) into HEK-293T cells (5×10^6 cells/plate) in 10-cm dishes using PEI (Polysciences Inc.; Warrington, Pa.) in a 1:1 ratio diluted in Opti-MEM (Life Technologies Corp.; Grand Island, N.Y.) to assay for G protein activation as described previously (Rives, M.-L. et al. J. Biol. Chem. 2012, 287, 27050-4; Negri, A.; Rives, M.-L.; Caspers, M. J. et al. J. Chem. Inf. Model. 2013, 53, 521-526). Cells were maintained in the Dulbecco's Modified Eagle Medium (high glucose #11965; Life Technologies) supplemented with 10% FBS (Premium Select, Atlanta Biologicals; Atlanta, Ga.) and 100 U/mL penicillin and 100 μg/mL streptomycin (#15140, Life Technologies). After 24 hours the media was changed, and the experiment was performed 24 hours later (48 hours after transfection).
(§2) BRET. Transfected cells were dissociated and resuspended in phosphate-buffered saline (PBS). Approximately 200,000 cells/well were added to a black-framed, white well 96-well plate (#60050; Perkin Elmer; Waltham, Mass.). The microplate was centrifuged and the cells were resuspended in PBS. Then 5 μM of the luciferase substrate coelenterazine H was added to each well for 5 minutes. Following coelenterazine H addition, ligands were added and the BRET signal was measured at 5 minutes on a PHERAstar FS plate reader. Quantification of the BRET signal required calculating the ratio of the light emitted by the energy acceptor, mVenus (510-540 nm), over the light emitted by the energy donor, RLuc8 (485 nm). […] Dose response curves were fit using three-parameter logistics equation in GraphPad Prism 6.
In the case of `CN1c2ccccc2C(NCCCCCCC(=O)O)c2ccc(Cl)cc2S1(=O)=O` (centres unmarked) [tianeptine, reference compound], the EC50 stood at 0.194 ± 0.07 µM.

As to `COCCCNC1c2ccccc2N(C)S(=O)(=O)c2cc(SC)ccc21` (centres unmarked) [compound 44, 11-((3-Methoxypropyl)amino)-6-methyl-3-(methylthio)-6, 11-dihydrodibenzo[c,f][1,2]thiazepine 5,5-dioxide], the EC50 was less than 10 µM.

In turn, `CCOC(=O)CCCCCCNC1c2ccccc2N(CC)S(=O)(=O)c2ccccc21` (centres unmarked) [compound 66, Ethyl 7-((6-ethyl-5,5-dioxido-6,11-dihydrodibenzo[c,f][1,2]thiazepin-11-yl)amino)heptanoate] registered an EC50 of less than 10 µM.

Regarding `COCCCNC1c2ccccc2N(C)S(=O)(=O)c2cc(Br)ccc21` (centres unmarked) [compound 53, 3-Bromo-11-((3-methoxypropyl)amino)-6-methyl-6,11-dihydrodibenzo[c,f] [1,2]thiazepine 5,5-dioxide], the EC50 is 0.0741 ± 0.0179 µM.

`COCCCNC1c2ccccc2N(C)S(=O)(=O)c2cc(Oc3ccccc3)ccc21` (centres unmarked) [compound 29, 11-((3-Methoxypropyl)amino)-6-methyl-3-phenoxy-6,11-dihydrodibenzo [c,f][1,2]thiazepine 5,5-dioxide] gave an EC50 of less than 10 µM.

For `COCCCNC1c2ccc(Br)cc2S(=O)(=O)N(C)c2ccsc21` (centres unmarked) [compound 72, 7-Bromo-10-((3-methoxypropyl)amino)-4-methyl-4,10-dihydrobenzo[f]thieno[3,2-c][1,2]thiazepine 5,5-dioxide], the EC50 was less than 10 µM.

`CCOC(=O)CCCCCCNC1c2ccc(Cl)cc2N(C)S(=O)(=O)c2ccccc21` (centres unmarked) [compound 70, Ethyl 7-((8chloro-6-methyl-5,5-dioxido-6,11-dihydrodibenzo[c,f][1,2]thiazepin-11-yl)amino)heptanoate] had an EC50 of less than 10 µM.

On to `CCOC(=O)CCCCCCNC1c2ccccc2N(C)S(=O)(=O)c2cc(Cl)ccc21` (centres unmarked) [compound 34, Ethyl 7-((3-chloro-6-methyl-5,5-dioxido-6,11-dihydrodibenzo[c,f][1,2]thiazepin-11-yl)amino)heptanoate], for which the midpoint of the response, the EC50, lay at 0.657 ± 0.366 µM.

In the case of `COCCCNC1c2ccccc2N(C)S(=O)(=O)c2cc(OC(C)=O)ccc21` (centres unmarked) [compound 59, 11-((3-Methoxypropyl)amino)-6-methyl-5,5-dioxido-6,11-dihydrodibenzo[c,f][1,2]thiazepin-3-yl acetate], the 50% effective concentration (EC50) is less than 10 µM.

In the case of `COCCOCCNC1c2ccccc2N(C)S(=O)(=O)c2cc(Cl)ccc21` (centres unmarked) [compound 36, 3-Chloro-11-((2-(2-methoxyethoxy)ethyl)amino)-6-methyl-6,11-dihydrodibenzo[c,f][1,2]thiazepine 5,5-dioxide], the EC50 was less than 10 µM.

Consider `COCCCNC1c2ccccc2N(C)S(=O)(=O)c2cc([S+](C)[O-])ccc21` (mixture of isomers) [compound 55, 11-((3-Methoxypropyl)amino)-6-methyl-3-(methylsulfinyl)-6,11-dihydrodibenzo[c,f][1,2]thiazepine 5,5-dioxide], for which the EC50 was less than 20 µM.

`CN1c2ccccc2C(NCCCCCCC(=O)O)c2ccc(Br)cc2S1(=O)=O` (centres unmarked) [compound 82, 7-((3-Bromo-6-methyl-5,5-dioxido-6,11-dihydrodibenzo[c,f][1,2]thiazepin-11-yl)amino)heptanoic acid hydrochloride salt] came in with an EC50 of 0.122 µM.

`COCCCNC1c2ccccc2S(=O)(=O)N(C)c2c(OC)cccc21` (centres unmarked) [compound 50]: the EC50 was less than 20 µM.

In turn, `COCCCNC1c2ccccc2N(C)S(=O)(=O)c2ccc(Cl)cc21` (centres unmarked) [compound 60] registered an EC50 of less than 20 µM.

Turning to `COCCCCCNC1c2ccccc2N(C)S(=O)(=O)c2cc(Cl)ccc21` (centres unmarked) [compound 32, 3-Chloro-11-((5-methoxypentyl)amino)-6-methyl-6,11-dihydrodibenzo [c,f][1,2]thiazepine 5,5-dioxide], a half-maximal response (EC50) required 0.563 ± 0.247 µM.

In the case of `CCOC(=O)CCCCCCNC1c2ccccc2S(=O)(=O)N(C)c2c(OC)cccc21` (centres unmarked) [compound 51, Ethyl 7-((7-methoxy-6-methyl-5,5-dioxido-6,11-dihydrodibenzo[c,f][1,2]thiazepin-11-yl)amino)heptanoate], the EC50 is less than 10 µM.

Turning to `CCOC(=O)CCCCCCNC1c2ccccc2N(C)S(=O)(=O)c2cc(Br)ccc21` (centres unmarked) [compound 81, Ethyl 7-((3-bromo-6-methyl-5,5-dioxido-6,11-dihydrodibenzo [c,f] [1,2]thiazepin-11-yl)amino)heptanoate], a half-maximal effect (EC50) was put at 0.573 µM.

The compound `COCCCCNC1c2ccccc2N(C)S(=O)(=O)c2cc(Cl)ccc21` (centres unmarked) [compound 39, 3-Chloro-11-((4-methoxybutyl)amino)-6-methyl-6,11-dihydrodibenzo [c,f][1,2]thiazepine 5,5-dioxide] returned an EC50 of less than 10 µM.

The compound `CN1c2ccccc2C(NCCCCCO)c2ccc(Cl)cc2S1(=O)=O` (centres unmarked) [compound 30, 3-Chloro-11-((5-hydroxypentyl)amino)-6-methyl-6,11-dihydrodibenzo [c,f][1,2]thiazepine 5,5-dioxide] showed a concentration for a half-maximal effect (EC50) of more than 50 µM.

`COCCCNC1c2ccccc2S(=O)(=O)N(C)c2c(Br)csc21` (centres unmarked) [compound 43, 3-Bromo-10-((3-methoxypropyl)amino)-4-methyl-4,10-dihydrobenzo[f]thieno[3,2-c][1,2]thiazepine 5,5-dioxide]: the half-maximal effective concentration (EC50) is less than 20 µM.

On to `CCOC(=O)CCCCCCNC1c2ccc(Cl)cc2S(=O)(=O)N(C)c2ccsc21` (centres unmarked) [compound 79, Ethyl 7-((7-chloro-4-methyl-5,5-dioxido-4,10-dihydrobenzo[f]thieno[3,2-c][1,2]thiazepin-10-yl)amino)heptanoate], for which the EC50 was less than 10 µM.

`CCN1c2ccccc2C(NCCCOC)c2ccccc2S1(=O)=O` (centres unmarked) [compound 65, 6-Ethyl-11-((3-methoxpropyl)amino)-6,11-dihydrodibenzo[c,f][1,2]thiazepine 5,5-dioxide]: the EC50 is more than 20 µM.

In turn, `CCCCCCCNC1c2ccccc2N(C)S(=O)(=O)c2cc(Cl)ccc21` (centres unmarked) [compound 26, 3-Chloro-11-(heptylamino)-6-methyl-6,11-dihydrodibenzo [c,f][1,2]thiazepine 5,5-dioxide] registered an EC50 of less than 10 µM.

In the case of `CCOC(=O)CCCCCCNC1c2ccc(Br)cc2S(=O)(=O)N(C)c2ccsc21` (centres unmarked) [compound 74, Ethyl 7-((7-bromo-4-methyl-5,5-dioxido-4,10-dihydrobenzo[f]thieno[3,2-c][1,2]thiazepin-10-yl)amino)heptanoate], the EC50 is less than 10 µM.

Consider `CN1c2ccccc2C(NCCCO)c2ccc(Cl)cc2S1(=O)=O` (centres unmarked) [compound 83, 3-Chloro-11-((3-hydroxypropyl)amino)-6-methyl-6,11-dihydrodibenzo[c,f][1,2] iazepine 5,5-dioxide], for which the midpoint of the response, the EC50, lay at 1.81 µM.

On to `COCCCNC1c2ccccc2N(C)S(=O)(=O)c2cc(F)ccc21` (centres unmarked) [compound 40, 3-Fluoro-11-((3-methoxypropyl)amino)-6-methyl-6,11-dihydrodibenzo[c,f] [1,2]thiazepine 5,5-dioxide], for which the EC50 stood at 5.53 ± 0.25 µM.

In turn, `COCCCNC1c2ccccc2N(C)S(=O)(=O)c2cc(I)ccc21` (centres unmarked) [compound 48, 3-Iodo-11-((3-methoxypropyl)amino)-6-methyl-6,11-dihydrodibenzo [c,f][1,2]thiazepine 5,5-dioxide] yielded an EC50 of 0.0152 ± 0.0069 µM.

In turn, `COCCCNC1c2ccc(Cl)cc2S(=O)(=O)N(C)c2ccsc21` (centres unmarked) [compound 77, 7-Chloro-10-((3-methoxypropyl)amino)-4-methyl-4,10-dihydrobenzo[f]thieno[3,2-c][1,2]thiazepine 5,5-dioxide] came in with an EC50 of less than 10 µM.

As to `CN1c2ccccc2C(NCC2CCOC2)c2ccc(Cl)cc2S1(=O)=O` (centres unmarked) [compound 46], the EC50 was less than 10 µM.

`CCOC(=O)CCCCCCNC1c2ccccc2N(C)S(=O)(=O)c2cc(F)ccc21` (centres unmarked) [compound 41, Ethyl 7-((3-fluoro-6-methyl-5,5-dioxido-6,11-dihydrodibenzo[c,f][1,2]thiazepin-11-yl)amino)heptanoate] showed an EC50 of 2.04 ± 0.334 µM.

On to `COC(C)CCNC1c2ccccc2N(C)S(=O)(=O)c2cc(Cl)ccc21` (mixture of isomers) [compound 67, 3-Chloro-11-((3-methoxybutyl)amino)-6-methyl-6,11-dihydrodibenzo [c,f][1,2]thiazepine 5,5-dioxide], for which the EC50 was less than 10 µM.

The test is the same for the next values; noted with them: BRET G protein activation, HEK-293T; mean ± SEM of independent trials; read-out: EC50 Human MOR.
With `CCOCCCNC1c2ccccc2N(C)S(=O)(=O)c2cc(Br)ccc21` (centres unmarked) [compound 71, 3-Bromo-11-((3-ethoxypropyl)amino)-6-methyl-6,11-dihydrodibenzo [c,f][1,2]thiazepine 5,5-dioxide], the EC50 is 0.222 ± 0.078 µM.

On to `CCOC(=O)CCCCCCNC1c2ccccc2S(=O)(=O)N(C)c2c(O)cccc21` (centres unmarked) [compound 62], for which the EC50 was more than 20 µM.

Another test has as its target T2, Mouse MOR (Mus musculus, UniProt P42866).
T2 construct: expressed in transfected cells; host or cells: HEK-293T
Nature of the test: BRET G protein activation assay, HEK-293T cells transfected with mouse MOR. It counts as cell-based.
Conditions: not given
From the text: as §1, §2
For the compound `CN1c2ccccc2C(NCCCCCCC(=O)O)c2ccc(Cl)cc2S1(=O)=O` (centres unmarked) [tianeptine, reference compound], a half-maximal effect (EC50) was put at 641 ± 120 nM.

The same test, now with this note: BRET G protein activation, HEK-293T; mean ± SEM of independent trials; read-out: EC50 Mouse MOR.
Take `COCCCNC1c2ccccc2N(C)S(=O)(=O)c2cc(SC)ccc21` (centres unmarked) [compound 44, 11-((3-Methoxypropyl)amino)-6-methyl-3-(methylthio)-6, 11-dihydrodibenzo[c,f][1,2]thiazepine 5,5-dioxide]: the half-maximal effective concentration (EC50) is less than 10000 nM.
